The assay relates to influenza A virus (A/WSN/33 NanoLuc reporter virus) in A549 cells. Kind of assay: microbe, parasite or virus in culture. The class given is cell-based. The following applies: A549, 24 h, read-out: IC50 values of viral replication inhibition in a cell-based Luciferase Reporter Assay (LRA). (In general: In a reporter assay the amount or activity of a reporter protein is the signal.)
The IC50 is the midpoint of a concentration-inhibition curve. With `CC(C)N1C[C@H](C(c2ccccc2)c2ccccc2)n2c(c(O)c(=O)n(Cc3ccccc3)c2=O)C1=O` [Example 1b-2, (4S)-4-Benzhydryl-7-benzyl-9-hydroxy-2-isopropyl-3,4-dihydropyrazino[1,2-c]pyrimidine-1,6,8-trione], the IC50 is 4300 nM.
On to `CC(C)N1C[C@H](C2c3ccccc3CCc3ccccc32)n2c(NS(C)(=O)=O)nc(=O)c(O)c2C1=O` [Ia-22, N-[(4S)-4-(6,11-dihydro-5H-dibenzo[1,2-a:2′,1′-d][7]annulen-11-yl)-9-hydroxy-2-isopropyl-1,8-dioxo-3,4-dihydropyrazino[1,2-c]pyrimidin-6-yl]methanesulfonamide], for which the IC50 turned out to be 144 nM.
To `CSc1nc(=O)c(O)c2n1[C@@H](C(c1ccccc1)c1ccccc1)CN(C(C)C)C2=O` [Ia-23, (4S)-4-Benzhydryl-9-hydroxy-2-isopropyl-6-methylsulfanyl-3,4-dihydropyrazino[1,2-c]pyrimidine-1,8-dione] belongs 36 nM; to `CCSc1nc(=O)c(O)c2n1[C@@H](C(c1ccccc1)c1ccccc1)CN(C(C)C)C2=O` [Ia-24, (4S)-4-Benzhydryl-6-ethylsulfanyl-9-hydroxy-2-isopropyl-3,4-dihydropyrazino[1,2-c]pyrimidine-1,8-dione], 11900 nM; to `CC(C)N1CC(C2c3cccc(F)c3CCc3c(F)cccc32)n2c(O)nc(=O)c(O)c2C1=O` (centres unmarked) [Ia-25, 4-(4,7-Difluoro-6,11-dihydro-5H-dibenzo[1,3-b:3′,1′-e][7]annulen-11-yl)-6,9-dihydroxy-2-isopropyl-3,4-dihydropyrazino[1,2-c]pyrimidine-1,8-dione], 86 nM.
Turning to `CC(C)N1C[C@H](C(c2ccccc2)c2ccccc2)n2c([S+](C)[O-])nc(=O)c(O)c2C1=O` (stereo partly drawn) [Ia-26, (4S)-4-Benzhydryl-9-hydroxy-2-isopropyl-6-methylsulfinyl-3,4-dihydropyrazino[1,2-c]pyrimidine-1,8-dione], the IC50 was 127 nM.
For `CC(C)N1C[C@H](C(c2ccccc2)c2ccccc2)n2cnc(=O)c(O)c2C1=O` [Ia-27, (4S)-4-Benzhydryl-9-hydroxy-2-isopropyl-3,4-dihydropyrazino[1,2-c]pyrimidine-1,8-dione], the IC50 came to 232 nM.
In the case of `CC(C)N1C[C@H](C(c2ccccc2)c2ccccc2)n2c(S)nc(=O)c(O)c2C1=O` [Ia-28, (4S)-4-benzhydryl-9-hydroxy-2-isopropyl-6-sulfanyl-3,4-dihydropyrazino[1,2-c]pyrimidine-1,8-dione], the IC50 came to 61 nM.
Regarding `CC(C)N1C[C@H](C2c3ccccc3CCc3ccccc32)n2cnc(=O)c(O)c2C1=O` [Ia-29, (4S)-4-(6,11-Dihydro-5H-dibenzo[2,1-b:1′,2′-e][7]annulen-11-yl)-9-hydroxy-2-isopropyl-3,4-dihydropyrazino[1,2-c]pyrimidine-1,8-dione], the IC50 was determined as 22 nM.
To `CSc1nc(=O)c(O)c2n1[C@@H](C1c3ccccc3CCc3ccccc31)CN(C(C)C)C2=O` [Ia-30, (4S)-4-(6,11-Dihydro-5H-dibenzo[2,1-b:1′,2′-e][7]annulen-11-yl)-9-hydroxy-2-isopropyl-6-methylsulfanyl-3,4-dihydropyrazino[1,2-c]pyrimidine-1,8-dione] belongs 17 nM.
To `CC(C)N1C[C@H](C2c3ccccc3CCc3ccccc32)n2c([S+](C)[O-])nc(=O)c(O)c2C1=O` (stereo partly drawn) [Ia-31, (4S)-4-(6,11-Dihydro-5H-dibenzo[2,1-b:1′,2′-e][7]annulen-11-yl)-9-hydroxy-2-isopropyl-6-methylsulfinyl-3,4-dihydropyrazino[1,2-c]pyrimidine-1,8-dione] belongs 15 nM.
For the compound `CC[S+]([O-])c1nc(=O)c(O)c2n1[C@@H](C(c1ccccc1)c1ccccc1)CN(C(C)C)C2=O` (stereo partly drawn) [Ia-32, (4S)-4-Benzhydryl-6-ethylsulfinyl-9-hydroxy-2-isopropyl-3,4-dihydropyrazino[1,2-c]pyrimidine-1,8-dione], the IC50 stood at 117 nM.
`CC(C)N1C[C@H](C(c2ccccc2)c2ccccc2)n2c(NCC(F)(F)F)nc(=O)c(O)c2C1=O` [Ia-33, (4S)-4-Benzhydryl-9-hydroxy-2-isopropyl-6-(2,2,2-trifluoroethylamino)-3,4-dihydropyrazino[1,2-c]pyrimidine-1,8-dione]: the IC50 was 273 nM.
Regarding `CC(C)N1C[C@H](C2c3ccccc3CCc3ccccc32)n2c(NCC(F)(F)F)nc(=O)c(O)c2C1=O` [Ia-34, (4S)-4-(6,11-Dihydro-5H-dibenzo[2,1-b:1′,2′-e][7]annulen-11-yl)-9-hydroxy-2-isopropyl-6-(2,2,2-trifluoroethylamino)-3,4-dihydropyrazino[1,2-c]pyrimidine-1,8-dione], the IC50 worked out at 50 nM.
Regarding `CC(C)Nc1nc(=O)c(O)c2n1[C@@H](C(c1ccccc1)c1ccccc1)CN(C(C)C)C2=O` [Ia-35, (4S)-4-Benzhydryl-9-hydroxy-2-isopropyl-6-(isopropylamino)-3,4-dihydropyrazino[1,2-c]pyrimidine-1,8-dione], the IC50 came to 324 nM.
Regarding `CC(C)Nc1nc(=O)c(O)c2n1[C@@H](C1c3ccccc3CCc3ccccc31)CN(C(C)C)C2=O` [Ia-36, (4S)-4-(6,11-Dihydro-5H-dibenzo[2,1-b:1′,2′-e][7]annulen-11-yl)-9-hydroxy-2-isopropyl-6-(isopropylamino)-3,4-dihydropyrazino[1,2-c]pyrimidine-1,8-dione], the IC50 is 103 nM.
Turning to `CC(C)N1C[C@H](C(c2ccccc2)c2ccccc2)n2c(NC(C)C(F)(F)F)nc(=O)c(O)c2C1=O` (stereo partly drawn) [Ia-37, (4S)-4-Benzhydryl-9-hydroxy-2-isopropyl-6-[(2,2,2-trifluoro-1-methyl-ethyl)amino]-3,4-dihydropyrazino[1,2-c]pyrimidine-1,8-dione], the IC50 was found to be 516 nM.
Turning to `CC(C)N1C[C@H](C(c2ccccc2)c2ccccc2)n2c(S(C)(=O)=O)nc(=O)c(O)c2C1=O` [Ia-38, (4S)-4-Benzhydryl-9-hydroxy-2-isopropyl-6-methylsulfonyl-3,4-dihydropyrazino[1,2-c]pyrimidine-1,8-dione], the IC50 was 110 nM.
In the case of `CCS(=O)(=O)c1nc(=O)c(O)c2n1[C@@H](C(c1ccccc1)c1ccccc1)CN(C(C)C)C2=O` [Ia-39, (4S)-4-Benzhydryl-6-ethylsulfonyl-9-hydroxy-2-isopropyl-3,4-dihydropyrazino[1,2-c]pyrimidine-1,8-dione], the IC50 came to 470 nM.
Consider `Cc1nc(=O)c(O)c2n1[C@@H](C(c1ccccc1)c1ccccc1)CN(C(C)C)C2=O` [Ia-40, (4S)-4-Benzhydryl-9-hydroxy-2-isopropyl-6-methyl-3,4-dihydropyrazino[1,2-c]pyrimidine-1,8-dione], for which the IC50 turned out to be 119 nM.
To `CCc1nc(=O)c(O)c2n1[C@@H](C(c1ccccc1)c1ccccc1)CN(C(C)C)C2=O` [Ia-41, (4S)-4-Benzhydryl-6-ethyl-9-hydroxy-2-isopropyl-3,4-dihydropyrazino[1,2-c]pyrimidine-1,8-dione] belongs 77 nM; to `CC(C)N1C[C@H](C(c2ccccc2)c2ccccc2)n2c(-c3ccccc3)nc(=O)c(O)c2C1=O` [Ia-42, (4S)-4-benzhydryl-9-hydroxy-2-isopropyl-6-phenyl-3,4-dihydropyrazino[1,2-c]pyrimidine-1,8-dione], 126 nM.
In the case of `CC(C)N1C[C@H](C(c2ccccc2)c2ccccc2)n2c(-n3ccnc3)nc(=O)c(O)c2C1=O` [Ia-43, (4S)-4-Benzhydryl-9-hydroxy-6-imidazol-1-yl-2-isopropyl-3,4-dihydropyrazino[1,2-c]pyrimidine-1,8-dione], the IC50 stood at 495 nM.
With `CC(C)N1C[C@H](C(c2ccccc2)c2ccccc2)n2c(-n3cnnc3)nc(=O)c(O)c2C1=O` [Ia-44, (4S)-4-Benzhydryl-9-hydroxy-2-isopropyl-6-(1,2,4-triazol-4-yl)-3,4-dihydropyrazino[1,2-c]pyrimidine-1,8-dione], the IC50 was 130 nM.
Take `CC(C)N1C[C@H](C2c3ccccc3CCc3ccccc32)n2c(-n3ccnc3)nc(=O)c(O)c2C1=O` [Ia-45, (4S)-4-(6,11-Dihydro-5H-dibenzo[2,1-b:1′,2′-e][7]annulen-11-yl)-9-hydroxy-6-imidazol-1-yl-2-isopropyl-3,4-dihydropyrazino[1,2-c]pyrimidine-1,8-dione]: the IC50 was determined as 62 nM.
To `CC(C)N1C[C@H](C2c3ccccc3CCc3ccccc32)n2c(-n3cnnc3)nc(=O)c(O)c2C1=O` [Ia-46] belongs 55 nM; to `C=Cc1nc(=O)c(O)c2n1C(C1c3ccccc3CCc3ccccc31)CN(C(C)C)C2=O` (centres unmarked) [Ia-47, 4-(6,11-Dihydro-5H-dibenzo[2,1-b:1′,2′-e][7]annulen-11-yl)-9-hydroxy-2-isopropyl-6-vinyl-3,4-dihydropyrazino[1,2-c]pyrimidine-1,8-dione], 40 nM; to `CC(C)N1CC(C2c3ccccc3CCc3ccccc32)n2c(CO)nc(=O)c(O)c2C1=O` (centres unmarked) [Ia-48, 4-(6,11-Dihydro-5H-dibenzo[2,1-b:1′,2′-e][7]annulen-11-yl)-9-hydroxy-6-(hydroxymethyl)-2-isopropyl-3,4-dihydropyrazino[1,2-c]pyrimidine-1,8-dione], 20 nM.
As to `CNc1nc(=O)c(O)c2n1[C@@H](C(c1ccccc1)c1ccccc1)CN(C(C)C)C2=O` [Ia-49, (4S)-4-Benzhydryl-9-hydroxy-2-isopropyl-6-(methylamino)-3,4-dihydropyrazino[1,2-c]pyrimidine-1,8-dione], the IC50 worked out at 880 nM.
For `CNC(=N)Nc1nc(=O)c(O)c2n1[C@@H](C(c1ccccc1)c1ccccc1)CN(C(C)C)C2=O` [Ia-50, 1-[(4S)-4-Benzhydryl-9-hydroxy-2-isopropyl-1,8-dioxo-3,4-dihydropyrazino[1,2-c]pyrimidin-6-yl]-3-methyl-guanidine], the IC50 is 1070 nM.
To `CC(C)N1C[C@H](C(c2ccccc2)c2ccccc2)n2c(C#N)nc(=O)c(O)c2C1=O` [Ia-51, (4S)-4-Benzhydryl-9-hydroxy-2-isopropyl-1,8-dioxo-3,4-dihydropyrazino[1,2-c]pyrimidine-6-carbonitrile] belongs 368 nM; to `CC(C)N1C[C@H](C(c2ccccc2)c2ccccc2)n2c(C(N)=O)nc(=O)c(O)c2C1=O` [Ia-52, (4S)-4-Benzhydryl-9-hydroxy-2-isopropyl-1,8-dioxo-3,4-dihydropyrazino[1,2-c]pyrimidine-6-carboxamide], 93 nM.

These data come from patent US9988390B2, “Pyrimidone derivatives and their use in the treatment, amelioration or prevention of a viral disease” (F. Hoffmann-La Roche AG, priority 2015, dated 2018).
